Reference: US8044057B2, “Methods for suppressing an immune response or treating a proliferative disorder” (The United States of America as represented by the …, priority 2003, dated 2011)

Legend:
NOD mouse model = experiment: NOD and Hashimoto's autoimmune animal models; type: in vivo; conditions: compared to untreated animals
Text: There are several animal based autoimmune models that can be used to test the use of the compounds disclosed herein for the treatment of an autoimmune disorder. Table 2 lists several exemplary immune-mediated disorders that can be treated using a peptide/MHC complex. For example, the non-obese diabetic (NOD) mouse model is an animal model system wherein animals develop diabetes with increasing age. To test the efficacy of a particular compound, groups of animals at the prediabetic stage (4 weeks or younger) are treated with, for example, LY303511, or LY303511 in combination with an additional immunosuppressive agent. The number of animals developing diabetes, and the rate that the anirnals develop diabetes, is then analyzed. Similarly, in the Hashimoto's mouse model system, to test the efficacy of a vaccine, groups of animals prior to the development of symptoms are treated with a treated with, for example, LY303511, or LY303511 in combination with an additional immunosuppressive agent. The number of animals developing the disease, and the rate that the animals develop the disease, are then analyzed.

AKT = experiment: Western blot of phospho-Akt S473 in PASM cells; type: cell-based, human
Method: FIGS. 4A-4D are bar graphs and digital images showing that LY303511 inhibits serum-stimulated phosphorylation of S6K and Akt (FIGS. 4A and 4B), as well as proliferation in PASM cells (FIGS. 4C and 4D). After incubation in serum-free medium for 24 hours, PASM cells were incubated without or with 100 μM LY303511, rapamycin, 200 ng/ml, or 200 nM wortmannin (FIG. 4A), or 0-100 μM LY303511 (FIG. 4B), for 1 hour before the addition of 10% FBS for 30 min and preparation of cell lysates. Equal amounts of protein (20 μg/gel) were separated by SDS-PAGE and transferred to nitrocellulose membranes before immunodetection of phospho-p70 S6 kinase T389 (pS6K) orphospho-Akt S473 (pAkt) by Western blot. Data are from one experiment representative of five.
HPASM cells were purchased from Clonetics and passaged according to the manufacturer's instructions. Cells were plated in 100 mm dishes, and allowed to grow to near confluence before serum starvation for 24 hours. […] Cells were homogenized and the indicated proteins were detected by Western blot.
Measurement of protein phosphorylation: A549 cells were incubated in serum-free medium without or with inhibitors for 1 hour, as indicated, before incubation for 30 minutes with a mixture of LPS, 100 μg/ml (Sigma; St. Louis, Mo.) and IFN-γ, 100 U/ml (Roche; Nutley, N.J.). […] Integrated band densities were quantified using Scion Image beta 3b software.

P70 S6 kinase = experiment: Western blot of phospho-p70 S6 kinase T389 in A549 cells; type: cell-based, human
Method: A549 cells were treated without or with 100 mcM LY303511, 200 ng/ml rapamycin, or 50 nM wortmannin in serum free media for 1 hour before addition of E. coli lipopolysaccharide (LPS), […] and interferon (IFN)-γ, 100 U/ml (LPS/IFN-γ or “L/I”). Cells were homogenized and the indicated proteins (see Table 1) were detected by Western blot. Western blots are from the same experiment, and representative of three experiments.
In another experiment, A549 cells were grown to sub-confluence in serum-containing media, and incubated with a vehicle, 100 mcM LY303511, or rapamycin, 200 ng/ml for 0, 12, or 24 hours. Cells were lysed, and proteins separated by SDS-PAGE before transfer to nitrocellulose membranes. Membranes were incubated with antibodies against p27Kip1, p21 Cip1 orphospho-P70 S6 kinase T389.
Measurement of protein phosphorylation: A549 cells were incubated in serum-free medium without or with inhibitors for 1 hour, as indicated, before incubation for 30 minutes with a mixture of LPS, 100 μg/ml (Sigma; St. Louis, Mo.) and IFN-γ, 100 U/ml (Roche; Nutley, N.J.). PASM cells were incubated in serum-free medium without or with inhibitors for 24 h as indicated, before incubation for 30 min with 10% FBS. A549 or PASM cells were washed once with cold PBS and incubated for 15 minutes on ice ih lysis buffer (20 mM Tris pH 8.0, 1% Nonidet P-40, 1 mM EDTA, 5 mM benzamidine, aprotinin, 10 μg/ml, leupeptin, 10 μg/ml, trypsin soybean inhibitor, 1 mM PMSF, 50 mM sodium fluoride, 100 μM sodium orthovanadate, and 1: 100 Sigma phosphatase inhibitor set I containing cantharidin, microcystin LR and bromotetramizole). After freezing and thawing, lysates were centrifuged for 30 min at 16,000×g before protein measurement and storage at −80° C. Equal amounts of total protein were separated by SDS-PAGE, and transferred to a nitrocellulose membrane, before immunoblotting with primary antibodies as indicated. Membranes were treated with anti-rabbit IgG or anti-mouse IgG antibodies (Promega; Madison, Wis.) linked to horseradish peroxidase, developed using an enhanced chemiluminescence detection kit (SuperSignal West Pico, Pierce; Rockford, Ill.), and exposed to X-ray film, which was scanned using an Epson Expression 636 scanner. Integrated band densities were quantified using Scion Image beta 3b software.

IC50 (AKT; Homo sapiens, pulmonary artery smooth muscle cells, densitometry, read-out: IC50 for inhibition of Akt phosphorylation): 10 to 100 µM
IC50 (P70 S6 kinase; Homo sapiens, A549 cells, stimulated, densitometric analysis of pS6K phosphoblots, read-out: IC50 for inhibition of S6K phosphorylation): ~10 µM
Compound: O=c1cc(N2CCNCC2)oc2c(-c3ccccc3)cccc12 [LY303511, 2-(4-piperazinyl)-8-phenyl-4H-1-benzopyran-4-one]
progression or development of autoimmune disease (NOD mouse model): delays the progression of the disease, or provides protection from developing the disease
phosphorylation of AKT (AKT; PASM cells, 10% FBS for 30 minutes): inhibits phosphorylation of AKT, albeit to a lesser extent than phosphorylation of p70 S6 kinase
phosphorylation of P70 S6 kinase at T389 (P70 S6 kinase; A549 cells in serum-containing media, 100 mcM LY303511 or rapamycin 200 ng/ml, 12 and 24 hours): blocked phosphorylation of P70 S6 kinase at T389
lowest concentration inhibiting LPS/IFNγ-stimulated mTOR activity and mTOR-dependent phosphorylation of S6K (P70 S6 kinase; A549 cells, LPS/IFNγ-stimulated): 1 µM
phosphorylation of P70 S6 kinase (pS6K T389) (P70 S6 kinase; A549 cells, 100 mcM LY303511, rapamycin 200 ng/ml or wortmannin for 1 hour before LPS/IFN-γ, Western blot): blocks phosphorylation of P70 S6 kinase
